Measured values: article PMC2866097 (Meat science, 2010)

Experiments:
[1] = system: bovine fast myosin subfragment 1 (fast S1, cutaneous trunci)
[2] = biological target: bovine slow myosin subfragment 1 (slow S1, masseter) (Bos taurus, UniProt Q9BE39); test: biochemical
purified protein = substrate: O=P(O)(O)OP(=O)(O)OP(=O)(O)O; test: purified protein; settings: Mg2+

Sequence of bovine slow myosin subfragment 1 (slow S1, masseter) (P85100 2-199 partner, one chain of several): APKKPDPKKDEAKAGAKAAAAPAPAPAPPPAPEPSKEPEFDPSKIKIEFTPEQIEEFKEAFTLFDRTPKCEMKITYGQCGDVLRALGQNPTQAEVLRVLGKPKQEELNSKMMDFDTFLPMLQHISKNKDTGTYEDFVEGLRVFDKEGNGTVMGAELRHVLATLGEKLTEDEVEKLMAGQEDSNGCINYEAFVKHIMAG

Molecule: O=P(O)(O)OP(=O)(O)O [PPi, pyrophosphate]
- Ki [1]: 88 ± 6.9 µM
- Ki [2]: 18 ± 1.8 µM

B1: bovine slow myosin subfragment 1 (slow S1, masseter) (Bos taurus) (protein)
chain: MVDAEMAAFGEAAPYLRKSEKERLEAQTRPFDLKKDVFVPDDKEEFVKATILSREGGKVTAETEHGKTVTVKEDQVLQQNPPKFDKIEDMAMLTFLHEPAVLYNLKERYASWMIYTYSGLFCVTINPYKWLPVYNAEVVAAYRGKKRSEAPPHIFSISDNAYQYMLTDRENQSILITGESGAGKTVNTKRVIQYFAVIAAIGDRSKKEQATGKGTLEDQIIQANPALEAFGNAKTVRNDNSSRFGKFIRIHFGATGKLASADIETYLLEKSRVIFQLKAERDYHIFYQILSNKKPELLDMLLITNNPYDYAFISQGETTVASIDDAEELMATDNAFDVLGFTTEEKNSMYKLTGAIMHFGNMKFKLKQREEQAEPDGTEEADKSAYLMGLNSADLLKGLCHPRVKVGNEYVTKGQNVQQVVYAKGALAKAVYERMFNWMVTRINATLETKQPRQYFIGVLDIAGFEIFDFNSFEQLCINFTNEKLQQFFNHHMFVLEQEEYKKEGIEWEFIDFGMDLQACIDLIEKPMGIMSILEEECMFPKATDMTFKAKLFDNHLGKSSNFQKPRNIKGKPEAHFSLIHYAGTVDYNIIGWLQKNKDPLNETVVDLYKKSSLKMLSSLFANYAGFDTPIEKGKGKAKKGSSFQTVSALHRENLNKLMTNLRSTHPHFVRCIIPNETKSPGVIDNPLVMHQLRCNGVLEGIRICRKGFPNRILYGDFRQRYRILNPAAIPEGQFIDSRKGAEKLLGSLDIDHNQYKFGHTKVFFKAGLLGLLEEMRDERLSRIITRIQAQSRGVLSRMEFKKLLERRDSLLIIQWNIRAFMGVKNWPWMKLYFKIKPLL
- Km (purified protein): 380 ± 130 µM
